Patent publication US4299822A, “N-Trifluoroacetyladriamycin-14-O-hemiglutarate and -hemiadipate and therapeutic compositions containing same” (Sidney Farber Cancer Institute, Inc., priority 1980, dated 1981)

Legend:
CCRF-CEM cells = assay: growth inhibition of CCRF-CEM cell line in culture; format: cell-based; details: Homo sapiens; CCRF-CEM cells, in vitro; read-out: ID50 (dose required to inhibit growth of the cultures by 50% relative to control)
Excerpt: The in vitro assays measure the growth inhibiting activity of the materials against the CCRF-CEM cell line in culture. […] The in vivo evaluations were made by preparing a 0.2 to 0.7% by weight solution of the active agent in a formulation consisting of 10% by volume of each polyethoxylated castor oil and ethanol in saline and injecting the dosage intraperitoneally. The evaluations were made of the antitumor activity against the murine P388 and murine L1210 leukemias in BDF1 male mice according to standard National Cancer Institute protocols as set forth by Geran et al., Cancer Chemotherap. Rep., Part 3, Volume 3, pages 1 et seq.

murine P388 leukemia = assay: in vivo antitumor activity against murine P388 leukemia, ip qd 1-4; set-up: species or system mouse (BDF1 male mice); details: 10% Emulphor EL-620, 10% ethanol, 80% saline
Protocol: (§1) The toxicity and therapeutic effectiveness of the new compounds and active agents of the present invention are shown by in vitro assays and by in vivo evaluations in mice. The in vitro assays measure the growth inhibiting activity of the materials against the CCRF-CEM cell line in culture. The cell line was derived from the peripheral blood of a child with lymphoblastic leukemia as described by Foley et al., Cancer, Volume 18, page 522 et seq. (1965), and the assays were carried out by the procedure of Foley and Lazarus, Biochem. Pharmacol., Volume 16, pages 659 et seq. (1967), the results being reported in terms of the dose in micromoles per liter required to inhibit growth of the cultures by 50% relative to control cultures to which no drug had been added (ID50). The in vivo evaluations were made by preparing a 0.2 to 0.7% by weight solution of the active agent in a formulation consisting of 10% by volume of each polyethoxylated castor oil and ethanol in saline and injecting the dosage intraperitoneally. The evaluations were made of the antitumor activity against the murine P388 and murine L1210 leukemias in BDF1 male mice according to standard National Cancer Institute protocols as set forth by Geran et al., Cancer Chemotherap. Rep., Part 3, Volume 3, pages 1 et seq. (1972) , except that a qd 1-4 schedule was used in place of qd 1-9 in order to conserve materials.
(§2) Optimal dosage was determined by testing doses which were at several multiples of 10 milligrams/kilogram of body weight. Some effectiveness can be observed at dosages ranging from 30 to 70 milligrams/kilogram of body weight, depending upon the particular compound employed.
The following table summarizes the in vivo antitumor activity of the same compounds as those in Table I, evaluated against murine P388 leukemia as described above. All compounds were administered intraperitoneally, adriamycin in clinical formulation (1 part adriamycin plus 5 parts lactose, in 0.9% saline), the other compounds in 10% Emulphor EL-620, 10% ethanol, 80% isotonic saline.

murine L1210 leukemia = assay: in vivo antitumor activity against L1210 leukemia, ip days 1-4; set-up: species or system mouse (BDF1 male mice); details: 10% Emulphor EL-620, 10% ethanol, 80% isotonic saline
Protocol: as §1, §2
All compounds were administered intraperitoneally; in tests (1) and (2), the compounds were in 10% Emulphor EL-620, 10% ethanol, and 80% isotonic saline. In test (3) the compound was in aqueous buffer containing monobasic potassium phosphate and sodium hydroxide (0.05 M), pH 7.40: […]

[1] = pH 7.4
[2] = cited from earlier work
[3] = cited from earlier work; remark: listed apart in the source
[4] = animals and human clinical tests

In the case of `CCCCC(=O)OCC(=O)C1(O)Cc2c(O)c3c(c(O)c2C(OC2CC(NC(=O)C(F)(F)F)C(O)C(C)O2)C1)C(=O)c1c(OC)cccc1C3=O` (stereo not shown) [N-Trifluoroacetyladriamycin-14-valerate], the IC50 (CCRF-CEM cells) is reported as 240 nM, the “% ILS (percent increase in life span relative to untreated controls)” value (murine P388 leukemia; each dose 20.0 mg/kg ip) is reported as 281% and the “No. alive on d 30” value (murine P388 leukemia; each dose 20.0 mg/kg ip) is reported as 5/7. The “No. alive on d 60” value (murine P388 leukemia; each dose 20.0 mg/kg ip) was 3/7, the “Survival, Median day of death (range)” value (murine P388 leukemia; each dose 20.0 mg/kg ip) was 42.0 (21-42) day and the “No. alive on d 30” value (murine P388 leukemia; each dose 30.0 mg/kg ip) was 4/7. The “No. alive on d 60” value (murine P388 leukemia; each dose 30.0 mg/kg ip) was 4/7, the “Survival, day of death (range only, no median)” value (murine P388 leukemia; each dose 30.0 mg/kg ip) was 21 to 26 days and the “No. alive on d 30” value (murine P388 leukemia; each dose 40.0 mg/kg ip) was 6/7. The “No. alive on d 60” value (murine P388 leukemia; each dose 40.0 mg/kg ip) was 6/7, the “Survival, day of death (range only, no median)” value (murine P388 leukemia; each dose 40.0 mg/kg ip) was 30,71 day and the “% ILS (percent increase in life span relative to untreated controls)” value (murine P388 leukemia; each dose 50.0 mg/kg ip) was 763%. For the same compound, the “No. alive on d 30” value (murine P388 leukemia; each dose 50.0 mg/kg ip) was 5/7, the “No. alive on d 60” value (murine P388 leukemia; each dose 50.0 mg/kg ip) was 5/7 and the “Survival, Median day of death (range)” value (murine P388 leukemia; each dose 50.0 mg/kg ip) was 95.0 (24-95) day. For the same compound, the “% ILS (percent increase in life span relative to untreated controls)” value (murine P388 leukemia; each dose 60.0 mg/kg ip) was 718%, the “No. alive on d 30” value (murine P388 leukemia; each dose 60.0 mg/kg ip) was 5/7 and the “No. alive on d 60” value (murine P388 leukemia; each dose 60.0 mg/kg ip) was 5/7. For the same compound, the “Survival, Median day of death (range)” value (murine P388 leukemia; each dose 60.0 mg/kg ip) was 90.0 (9-90) day, the “% ILS (percent median increase in life span relative to untreated controls, calculated as of day 50)” value (murine L1210 leukemia; 50.0 mg/kg/d × 4 ip) was > 456% and the “No. alive on d 50” value (murine L1210 leukemia; 50.0 mg/kg/d × 4 ip) was 5/7. For the same compound, the “% ILS (percent median increase in life span relative to untreated controls, calculated as of day 50)” value (murine L1210 leukemia; 60.0 mg/kg/d × 4 ip) was > 456%, the “No. alive on d 50” value (murine L1210 leukemia; 60.0 mg/kg/d × 4 ip) was 6/7 and the “solubility in water (in words)” value [1] was “a few micrograms”. The water solubility [2] was “essentially water-insoluble”, the “cardiotoxicity relative to parent drug” value [3, 4] was “significantly less cardiotoxic than the parent drug” and the “toxicity in general relative to parent drug” value [3, 4] was “less toxic in general”. The “therapeutic effect relative to adriamycin and daunomycin” value ([3]; human, in vivo) was “therapeutically superior to adriamycin and to daunomycin”.
